Results reported in the supplement of paper PMC13380429.

How the values were obtained:
Details in all cases: 72 h
[1] = test system: Calu-3; assay: cell viability relative to DMSO; higher = less toxic
[2] = test system: Caco-2; assay: as above
[3] = test system: HepG2; assay: as above
[4] = test system: Vero E6; assay: as above
[5] = test system: U2OS; assay: as above
[6] = test system: Calu-3; assay: relative viability EC50 (midpoint between 100% and the lowest measured viability); higher = less toxic
[7] = test system: Caco-2; assay: as above
[8] = test system: HepG2; assay: as above
[9] = test system: Vero E6; assay: as above
[10] = test system: U2OS; assay: as above
[11] = test system: Calu-3; assay: drug sensitivity score (DSS) for viability; higher = more toxic; extreme values may be limits of the assay
[12] = test system: Caco-2; assay: as above
[13] = test system: HepG2; assay: as above
[14] = test system: Vero E6; assay: as above
[15] = test system: U2OS; assay: as above

Structure (SMILES)	cell viability ([1]; 1 nM) [%]	cell viability ([1]; 10 nM) [%]	cell viability ([1]; 100 nM) [%]	cell viability ([1]; 1000 nM) [%]	cell viability ([1]; 10000 nM) [%]	cell viability ([2]; 1 nM) [%]	cell viability ([2]; 10 nM) [%]	cell viability ([2]; 100 nM) [%]	cell viability ([2]; 1000 nM) [%]	cell viability ([2]; 10000 nM) [%]	cell viability ([3]; 1 nM) [%]	cell viability ([3]; 10 nM) [%]	cell viability ([3]; 100 nM) [%]	cell viability ([3]; 1000 nM) [%]	cell viability ([3]; 10000 nM) [%]	cell viability ([4]; 1 nM) [%]	cell viability ([4]; 10 nM) [%]	cell viability ([4]; 100 nM) [%]	cell viability ([4]; 1000 nM) [%]	cell viability ([4]; 10000 nM) [%]	cell viability ([5]; 1 nM) [%]	cell viability ([5]; 10 nM) [%]	cell viability ([5]; 100 nM) [%]	cell viability ([5]; 1000 nM) [%]	cell viability ([5]; 10000 nM) [%]	relative viability EC50 [6] [µM]	relative viability EC50 [7] [µM]	relative viability EC50 [8] [µM]	relative viability EC50 [9] [µM]	relative viability EC50 [10] [µM]	drug sensitivity score [11]	drug sensitivity score [12]	drug sensitivity score [13]	drug sensitivity score [14]	drug sensitivity score [15]
Nc1ccc(S(=O)(=O)Nc2nccs2)cc1 [sulfathiazole]	86.1	94.9	92.2	98	89.3	95.8	96.1	95.1	93.6	99	102	95	94.2	105	116	96.9	100	97.5	104	102	94.2	98.5	94.3	93.6	102	> 10	> 10	> 10	> 10	> 10	0	0	0	0	0
CCC(=O)O[C@@](Cc1ccccc1)(c1ccccc1)[C@@H](C)CN(C)C [levopropoxyphene]	104	90.1	94.7	102	104	99.3	103	98.3	100	102	94.3	97.1	96.4	94.7	89.4	100	100	96	101	95.4	104	101	101	98.8	100	> 10	> 10	> 10	> 10	> 10	0	0	0	0	0
Clc1ccc(Nc2nnc(Cc3ccncc3)c3ccccc23)cc1 [vatalanib]	95.9	89.8	97.5	102	90.3	98.6	99.3	102	94.7	84.5	101	92.4	107	102	83	95.9	93.8	89	88.8	90	103	100	100	101	92.7	> 10	> 10	> 10	> 10	> 10	0	0.7	0.3	0.4	0
C[C@H](Oc1ccc(S(C)(=O)=O)cc1C(=O)N1CCN(c2ncc(C(F)(F)F)cc2F)CC1)C(F)(F)F [bitopertin]	97.1	99	95.8	97.8	106	100	98.6	92.5	94.2	91.1	94.7	95.1	96.2	104	98.4	103	95.6	96.6	100	97.5	98.9	100	101	95.3	101	> 10	> 10	> 10	> 10	> 10	0	0	0	0	0
